Reference: PubChem BioAssay (NCI)
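96-well plates; 48 h exposure; 5 concentrations. Endpoints by linear interpolation between flanking doses. Not reached: highest tested concentration assigned. TGI is the concentration that stops growth completely.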

Assays:
Experiment in all cases: NCI anticancer screen, dose series, 48 h
786-0 renal = test system: 786-0 renal
A549 NSCLC = test system: A549 NSCLC
CAKI-1 renal = test system: CAKI-1 renal
COLO 205 colon = test system: COLO 205 colon
EKVX NSCLC = test system: EKVX NSCLC
HCC-2998 colon = test system: HCC-2998 colon
K-562 leukemia = test system: K-562 leukemia
KM12 colon = test system: KM12 colon
MDA-MB-435 = test system: MDA-MB-435
OVCAR-3 ovarian = test system: OVCAR-3 ovarian
SF-295 CNS = test system: SF-295 CNS
SNB-19 CNS = test system: SNB-19 CNS
SR leukemia = test system: SR leukemia
SW-620 colon = test system: SW-620 colon
TK-10 renal = test system: TK-10 renal
UACC-257 melanoma = test system: UACC-257 melanoma
UACC-62 melanoma = test system: UACC-62 melanoma
NCI-H522 lung = test system: NCI-H522 lung
HS 578T breast = test system: HS 578T breast

Row | Compound | TGI (786-0 renal) | TGI (A549 NSCLC) | TGI (CAKI-1 renal) | TGI (COLO 205 colon) | TGI (EKVX NSCLC) | TGI (HCC-2998 colon) | TGI (K-562 leukemia) | TGI (KM12 colon) | TGI (MDA-MB-435) | TGI (OVCAR-3 ovarian) | TGI (SF-295 CNS) | TGI (SNB-19 CNS) | TGI (SR leukemia) | TGI (SW-620 colon) | TGI (TK-10 renal) | TGI (UACC-257 melanoma) | TGI (UACC-62 melanoma) | TGI (NCI-H522 lung) | TGI (HS 578T breast)
1 | COC(=O)C1(C(=O)OC)N=C(C)OC1c1ccccn1 (stereo not drawn) | > 100 µM | > 100 µM | > 100 µM | > 100 µM | > 100 µM | > 100 µM | > 100 µM | > 100 µM | > 100 µM | > 100 µM | > 100 µM | > 100 µM | > 100 µM | > 100 µM | > 100 µM | > 100 µM | > 100 µM |  | 
2 | COC(=O)N/N=C(\C(=O)Nc1cccc([N+](=O)[O-])c1)c1nc2ccc([N+](=O)[O-])cc2[nH]c1=O | > 100 µM | > 100 µM |  | > 100 µM | > 100 µM | > 100 µM | > 100 µM | > 100 µM |  | > 100 µM | > 100 µM | > 100 µM | > 100 µM | > 100 µM | > 100 µM | > 100 µM | 58.5 µM | 96.6 µM | 
3 | COC1(OC)N=C(N)C2(C#N)C3(C(=O)N(C(C)C)N=C3C)C12C#N (stereo not drawn) | > 100 µM | > 100 µM | > 100 µM | > 100 µM | > 100 µM | > 100 µM | > 100 µM | > 100 µM | > 100 µM | > 100 µM | > 100 µM | > 100 µM | > 100 µM | > 100 µM |  | > 100 µM | > 100 µM | > 100 µM | 
4 | Cc1nc2c(cc1C(=O)N/N=C/c1ccc([N+](=O)[O-])cc1)c(=O)n(C)c(=O)n2C | > 100 µM | > 100 µM | > 100 µM | > 100 µM | > 100 µM | > 100 µM | > 100 µM | > 100 µM | > 100 µM | > 100 µM | > 100 µM | 56.7 µM |  | > 100 µM | > 100 µM | > 100 µM | > 100 µM |  | 86.6 µM
5 | COC(=O)c1ccc(NCc2c(O)ccc(O)c2Br)cc1Cl | 32.6 µM | > 100 µM | 29.9 µM | 33.4 µM | 28.5 µM | 39.4 µM |  | 31 µM | 26.5 µM | 20.9 µM | 35 µM | > 100 µM |  | 25 µM |  | 83.8 µM | 30.3 µM | 3.51 µM | 95.4 µM
6 | COc1cc(CNC2=NCCC2)cc(OC)c1OC | > 100 µM | > 100 µM | > 100 µM | > 100 µM | > 100 µM | > 100 µM | > 100 µM |  |  | > 100 µM | > 100 µM | > 100 µM |  | > 100 µM | > 100 µM | > 100 µM | > 100 µM | > 100 µM | 
